Test results as given in US20040261578A1, “Stable self-organizing plant-organism systems for remediating polluted soils and waters” (priority 2003, published 2004).

Experiments:
maize inbred line Mo17 = assay: Shoot length of Mo17 after soil treatments and T22 seed treatment, Arkport sandy loam field soil; format: in vivo; conditions: no seed treatment, soil drenched with mefenoxam, seven days after planting
Experimental: Ten-day assays were conducted in larger boxes (5×11×11 cm). Four or five seeds, either treated or not treated with T22, were planted in each box and plants were grown for various lengths of time with 12 hr diurnal fluorescent lighting and were watered as needed. In some experiments, soils were autoclaved to examine maize growth responses in the absence of natural soil pathogens. In addition, some soils were drenched with mefenoxam ((R)-2-[2,6-dimethylphenyl)-methoxyacetylamino]-propionic acid methyl ester]; Subdue MAXX, Novartis, Research Triangle, NC) according to the manufacturer's directions.

wheat seedlings = conditions: 15000 ppm Prussian blue; 4.5 cm in its absence
Text: Ten wheat seeds were germinated in petri dishes containing approximately 50 g of grit sand. Each dish was moistened with plant nutrient solution in the presence or absence of 15000 ppm metallocyanide Prussian blue.

Compound | Shoot length (maize inbred line Mo17) [ab xy mm] | Mean root length of the wheat seedlings (wheat seedlings) [cm]
COCC(=O)N(c1c(C)cccc1C)[C@H](C)C(=O)OC [mefenoxam] | 63 | 
[C-]#N.[C-]#N.[C-]#N.[C-]#N.[C-]#N.[C-]#N.[C-]#N.[C-]#N.[C-]#N.[C-]#N.[C-]#N.[C-]#N.[C-]#N.[C-]#N.[C-]#N.[C-]#N.[C-]#N.[C-]#N.[Fe+2].[Fe+2].[Fe+2].[Fe+3].[Fe+3].[Fe+3].[Fe+3] [Prussian blue, Fe4 [Fe(CN)6]3] |  | 2.0
